For this assay, the system named is cultured murine melanocytes (melan-a). The assay can be described thus: Melanin assay in cultured murine melanocytes (melan-a). Particulars: Mus musculus, melan-a cells; for inhibition at 1 µM / inhibition at 5 µM: melanin formation, 72 hours of incubation; for IC50: melanin synthesis, read-out: IC50 range. Format: cell-based. The protocol: The Spectrum Collection library consisting of 2000 drug compounds or natural products was screened to identify novel pigmentation inhibitors or stimulators in cultured murine melanocytes (melan-a). Compounds were dissolved in dimethylsulfoxide (DMSO) to a final concentration of 10 mM. Screening was performed with cultured melanocytes in 24-well plates followed by melanin assay (see below). […] DMSO was used as a negative control and the widely used depigmenting agent, hydroquinone, was used as a positive control on every plate. […] All compounds were added at the indicated final concentrations. Cells were harvested after 72 hours of incubation, and melanin assay was performed. For further test and mechanism of action studies, the compounds were purchased from either Sigma or Microsoure. These compounds were dissolved in dimethylsulfoxide (DMSO) to a final concentration of 10 mM, and were tested for their effect on melanin synthesis at the indicated final concentrations. For the primary and secondary screening, cells were harvested and dissolved in 200 μl of 2N NaOH in 20% DMSO at 70° C. A 180-μl aliquot of the resulting solution was measured for absorbance at 490 nm. […] The lysates were centrifuged at 14,000 rpm for 10 minutes at 4° C. BCA protein assay kit (Pierce) was used to measure the protein concentrations of the supernatants, and bovine serum albumin was used as a standard. […] A 180-μl aliquot of the resulting solution was measured for absorbance at 490 nm. The melanin contents were normalized to the total amount of protein.

Counter-ions that a name gives are not always drawn.

The term inhibition denotes the relative decrease from the control value, in per cent. Low values mean a response near the control, high ones a response far below the control. One may read the IC50 as the point on the concentration scale where inhibition reaches its midpoint.

For the compound `CNCCC=C1c2ccccc2CCc2ccccc21` [compound 1, Nortriptyline], 1 µM produced 39% inhibition, the inhibition at 5 µM came out at 58% and the IC50 was 1 to 2.5 µM.

For the compound `CN(C)CCC=C1c2ccccc2CCc2ccccc21` [compound 2, Amitriptyline hydrochloride], the inhibition at 1 µM amounted to 51%, the inhibition at 5 µM amounted to 65% and the IC50 is under 1 µM.

As for `CC(CN(C)C)CN1c2ccccc2CCc2ccccc21` (centres unmarked) [compound 3, Trimpramine maleate], at 1 µM the inhibition was 28%, the inhibition at 5 µM amounted to 48% and the IC50 fell in the range of 1 to 2.5 µM.

For `CN(C)CCCN1c2ccccc2CCc2ccccc21` [compound 5, Imipramine hydrochloride], at 1 µM the inhibition was 34%, the inhibition at 5 µM is 60% and the IC50 was under 1 µM.

Take `CNCCCN1c2ccccc2CCc2ccccc21` [compound 6, Despramine hydrochloride]: the IC50 was in the range of 2.5 to 5 µM.

As for `CNCCCC1c2ccccc2C=Cc2ccccc21` [compound 8, Protriptyline hydrochloride], the half-inhibitory concentration (IC50) is 5 to 10 µM.

Source of the values: patent US20090304615A1, “TRICYCLIC COMPOUNDS AS MELANOGENESIS MODIFIERS AND USES THEREOF” (priority 2007, published 2009).
